Patent US9340538B2, “Dihydropyrimidine compounds and their application in pharmaceuticals” (SUNSHINE LAKE PHARMA CO., LTD., priority 2013, dated 2016)
Where two headings read alike, the source gives them in different places.

Tested on: HBV
Test: In-vitro anti-HBV activity in stable HBV-producing cell line (HepG2.2.15), HBV DNA in culture fluid by qPCR
Assay type: cell-based
Conditions: Hepatitis B virus, read-out: HBV (% Inh.) (500 nmol)
Procedure: In-Vitro Anti-HBV Activity of Compounds in Stable HBV-Producing Cell Line (HepG2.2.15)
HBV DNA contents in cell culture fluid were detected by the qPCR-based assay and percents of HBV inhibition by compounds (% Inh) were calculated. Specific procedures are as follows:
HepG2.2.15 cells were seeded into each well of 96-well plates, 40,000 cells per well. Cells were treated with cell culture medium containing compounds 24 hours after cell seeding. Each compound to detected percent inhibition was in duplicate and the final concentration of each compound was 500 nmol in each well. The compound-containing mediums were refreshed on day 4 post cell seeding. Culture media were collected from the HepG2.2.15 plates on day 7 post cell seeding followed by HBV DNA extraction.
HBV DNA extraction: using QIAamp 96 DNA Blood Kit (QIAGEN 51161).
PCR for quantification: PCR mix was prepared according to PCR system; PCR mix was dispensed to 384-well optical reaction plates (special for quantification); The standard diluted proportionally was added; The sample was added; The plates were sealed with optical adhesive film; PCR system was performed according to programs.
Percent of HBV inhibition of DNA replication by compound was calculated using the following equation: % Inh.=[1-HBV DNA quantity of sample/HBV DNA quantity of DMSO control]*100. II. Assay Results

[1] = 168 h, 500 nmol final concentration, HepG2.2.15 cells, HBV DNA in culture media on day 7 post seeding, vs DMSO control

| SMILES | inhibition at 0.5 µM [1] [%] | inhibition at 0.5 µM (HepG2.2.15, 168 h) [%] |
| --- | --- | --- |
| CCOC(=O)C1=C(CN2CCOC[C@H]2C(=O)NCCOC(C)=O)NC(c2nccs2)=NC1c1ccc(F)cc1Br (stereo partly drawn) [Example 55, Ethyl 6-(((S)-3-((2-acetoxyethyl)carbamoyl)morpholino)methyl)-4-(2-bromo-4-fluorophenyl)-2-(thiazol-2-yl)-1,4-dihydropyrimidine-5-carboxylate] | 93 |  |
| CCOC(=O)C1=C(CN2CCOC[C@H]2C(=O)N(C)OC)NC(c2nccs2)=NC1c1ccc(F)cc1Br (stereo partly drawn) [Example 60, Ethyl 4-(2-bromo-4-fluorophenyl)-6-(((S)-3-(methoxy(methyl)carbamoyl)morpholino)methyl)-2-(thiazol-2-yl)-1,4-dihydropyrimidine-5-carboxylate] | 94 |  |
| CCOC(=O)C1=C(CN2CCOC[C@H]2C(=O)O)NC(c2nc(CC(=O)OC)cs2)=NC1c1ccc(F)cc1Br (stereo partly drawn) [Example 61, (3S)-4-((6-(2-bromo-4-fluorophenyl)-5-(ethoxycarbonyl)-2-(4-(2-methoxy-2-oxoethyl)thiazol-2-yl)-3,6-dihydropyrimidin-4-yl)methyl)morpholine-3-carboxylic acid] | 91.1 |  |
| CCOC(=O)C1=C(CN2CCO[C@H](CO)C2)NC(c2nccs2)=NC1c1ccc(F)cc1Br (stereo partly drawn) [Example 66, Ethyl 4-(2-bromo-4-fluorophenyl)-6-(((S)-2-(hydroxymethyl)morpholino)methyl)-2-(thiazol-2-yl)-1,4-dihydropyrimidine-5-carboxylate] |  | 88.8 |
| CCOC(=O)C1=C(CN2CCOCC2C(=O)O)NC(c2nnc(C)s2)=NC1c1ccc(F)cc1Br (centres unmarked) [Example 69, 4-((6-(2-bromo-4-fluorophenyl)-5-(ethoxycarbonyl)-2-(5-methyl-1,3,4-thiadiazol-2-yl)-3,6-dihydropyrimidin-4-yl)methyl)morpholine-3-carboxylic acid] | 36.5 |  |
| CCOC(=O)C1=C(CN2CCOCC2C(=O)O)NC(c2nncs2)=NC1c1ccc(Cl)cc1Cl (centres unmarked) [Example 70, 4-((6-(2,4-dichlorophenyl)-5-(ethoxycarbonyl)-2-(1,3,4-thiadiazol-2-yl)-3,6-dihydropyrimidin-4-yl)methyl)morpholine-3-carboxylic acid] | 63.6 |  |
| CCOC(=O)C1=C(CN2CCOCC2C(=O)O)NC(c2nncs2)=NC1c1ccc(F)cc1Br (centres unmarked) [Example 71, 4-((6-(2-bromo-4-fluorophenyl)-5-(ethoxycarbonyl)-2-(1,3,4-thiadiazol-2-yl)-3,6-dihydropyrimidin-4-yl)methyl)morpholine-3-carboxylic acid] | 43.4 |  |
| CCOC(=O)C1=C(CN2CCOCC2C(=O)OC(C)C)NC(c2nccs2)=NC1c1ccc(F)cc1Br (centres unmarked) [Example 77, Isopropyl 4-((6-(2-bromo-4-fluorophenyl)-5-(ethoxycarbonyl)-2-(thiazol-2-yl)-3,6-dihydropyrimidin-4-yl)methyl)morpholine-3-carboxylate] | 91.9 |  |
| CCOC(=O)C1=C(CN2CCOCC2C(=O)OC(C)C)NC(c2nccs2)=NC1c1ccc(Cl)cc1Cl (centres unmarked) [Example 78, Isopropyl 4-((6-(2,4-dichlorophenyl)-5-(ethoxycarbonyl)-2-(thiazol-2-yl)-3,6-dihydropyrimidin-4-yl)methyl)morpholine-3-carboxylate] | 87.9 |  |
| CCOC(=O)C1=C(CN2CCOCC2C(=O)OCOC(=O)OC(C)C)NC(c2nccs2)=NC1c1ccc(Cl)cc1Cl (centres unmarked) [Example 80, ((Isopropoxycarbonyl)oxy)methyl 4-((6-(2,4-dichlorophenyl)-5-(ethoxycarbonyl)-2-(thiazol-2-yl)-3,6-dihydropyrimidin-4-yl)methyl)morpholine-3-carboxylate] | 91.9 |  |
| CCOC(=O)C1=C(CN2CCOCC2C(=O)NC(C)C)NC(c2nccs2)=NC1c1ccc(Cl)cc1Cl (centres unmarked) [Example 81, Ethyl 4-(2,4-dichlorophenyl)-6-((3-(isopropylcarbamoyl)morpholino)methyl)-2-(thiazol-2-yl)-1,4-dihydropyrimidine-5-carboxylate] | 91.9 |  |
| CCOC(=O)C1=C(CN2CCOCC2C(=O)NC(C)C)NC(c2nccs2)=NC1c1ccc(F)cc1Br (centres unmarked) [Example 82, Ethyl 4-(2-bromo-4-fluorophenyl)-6-((3-(isopropylcarbamoyl)morpholino)methyl)-2-(thiazol-2-yl)-1,4-dihydropyrimidine-5-carboxylate] | 96 |  |
| CCOC(=O)C1=C(CN2CCOC(C(=O)O)C2)NC(c2ncn(C)n2)=NC1c1ccc(F)cc1Br (centres unmarked) [Example 83, 4-((6-(2-bromo-4-fluorophenyl)-5-(ethoxycarbonyl)-2-(1-methyl-1H-1,2,4-triazol-3-yl)-3,6-dihydropyrimidin-4-yl)methyl)morpholine-2-carboxylic acid] | 36 |  |
| CCOC(=O)C1=C(CN2CCOCC2C(=O)O)NC(c2nc(C(F)(F)F)cs2)=NC1c1ccc(Cl)cc1Cl (centres unmarked) [Example 119, 4-((6-(2,4-dichlorophenyl)-5-(ethoxycarbonyl)-2-(4-(trifluoromethyl)thiazol-2-yl)-3,6-dihydropyrimidin-4-yl)methyl)morpholine-3-carboxylic acid] | 94 |  |
| CCOC(=O)C1=C(CN2CCOCC2C(=O)O)NC(c2ncc(F)s2)=NC1c1ccc(F)cc1Cl (centres unmarked) [Example 121, 4-((6-(2-chloro-4-fluorophenyl)-5-(ethoxycarbonyl)-2-(5-fluorothiazol-2-yl)-3,6-dihydropyrimidin-4-yl)methyl)morpholine-3-carboxylic acid] | 48.5 |  |
| CCOC(=O)C1=C(CN2CCOCC2C(=O)O)NC(c2ncc(F)s2)=NC1c1ccc(Cl)cc1Cl (centres unmarked) [Example 122, 4-((6-(2,4-dichlorophenyl)-5-(ethoxycarbonyl)-2-(5-fluorothiazol-2-yl)-3,6-dihydropyrimidin-4-yl)methyl)morpholine-3-carboxylic acid] | 46.2 |  |
| CCOC(=O)C1=C(CN2CCOCC2C(=O)O)NC(c2ncn(C)n2)=NC1c1ccc(F)cc1Br (centres unmarked) [Example 123, 4-((6-(2-bromo-4-fluorophenyl)-5-(ethoxycarbonyl)-2-(1-methyl-1H-1,2,4-triazol-3-yl)-3,6-dihydropyrimidin-4-yl)methyl)morpholine-3-carboxylic acid] | 37.5 |  |
| CCOC(=O)C1=C(CN2CCOCC2C(=O)O)NC(c2nccn2C)=NC1c1ccc(F)cc1Br (centres unmarked) [Example 125, 4-((6-(2-bromo-4-fluorophenyl)-5-(ethoxycarbonyl)-2-(1-methyl-1H-imidazol-2-yl)-3,6-dihydropyrimidin-4-yl)methyl)morpholine-3-carboxylic acid] | 92.5 |  |
| CCOC(=O)C1=C(CN2CCOC(CCCO)C2)NC(c2nccs2)=NC1c1ccc(F)cc1Br (centres unmarked) [Example 133, Ethyl 4-(2-bromo-4-fluorophenyl)-6-((2-(3-hydroxypropyl)morpholino)methyl)-2-(thiazol-2-yl)-1,4-dihydropyrimidine-5-carboxylate] | 92.6 |  |
| CCOC(=O)C1=C(CN2CCOC(CCC(N)=O)C2)NC(c2nccs2)=NC1c1ccc(F)cc1Br (centres unmarked) [Example 135, Ethyl 6-((2-(3-amino-3-oxopropyl)morpholino)methyl)-4-(2-bromo-4-fluorophenyl)-2-(thiazol-2-yl)-1,4-dihydropyrimidine-5-carboxylate] | 93.3 |  |
